Assay results: article PMC8698070, “The Zoonotic Helminth Parasite Fasciola hepatica: Virulence-Associated Cathepsin B and Cathepsin L Cysteine Peptidases Secreted by Infective Newly Excysted Juveniles (NEJ)” (Animals : an Open Access Journal from MDPI, 2021)
Entries after “also recorded” stand apart in the source; their conditions may differ. Blank lines part the entries; values can stand above or below the compound they belong to. Where a SMILES comes first, the peptide text is derived from it. The star is where a group is joined. Cbz = O=C(OCc1ccccc1)*; CH2F = FC*

Columns and labels:
[1] = target: FhCB3 (Fasciola hepatica, UniProt A7UNB2); assay: Inhibition of recombinant FhCB3, fluorogenic substrate assay (Z-Val-Ile-Arg-AMC); assay type: biochemical; details: for inhibition of enzymatic activity (inhibitor screen, Figure 5), in words: FhCB3, inhibitor 1000-15 nM; for Ki: read-out: inhibition constant Ki
Protocol: (§1) Recombinant peptidases were assayed for enzymatic activity using a fluorogenic substrate assay. The reactions were carried out in 0.1 M C-P buffer (pH 7.0) with 1 mM DTT in a final volume of 200 μL, in a black 96-well plate. Each well contained activated enzyme (140 nM) and 20 μM fluorogenic substrate, which was added to start the reaction. All assays were run in triplicate at 37 °C for 1 h. Enzyme activity was monitored by rate of hydrolysis and subsequent release of the AMC group on the synthetic peptide substrates at an excitation wavelength of 370 nm and an emission wavelength of 460 nm, as relative fluorescence units (RFU), in a PolarStar Omega Spectrophotometer (BMG Labtech, Aylesbury, UK). All data were plotted and analysed using MARS Data Analysis Software (BMG Labtech, UK) and GraphPad Prism version 5.
(§2) Commercially available inhibitors of cathepsin B (Ca074 and Ca074-OMe), cathepsin L (L, L1, LII, LIII and LIV), cathepsin K (KI, KII and KIII) and cathepsin S were purchased from Merck Millipore (Cork, Ireland; Supplementary Figure S2). The broad-spectrum papain peptidase inhibitor Z-Phe-Ala-FMK was purchased from Enzo Life Sciences (Exeter, UK). These were used to determine and compare the inhibition constant (Ki) against the recombinant FhCBs and FhCL3. All the assays were carried out in 0.1 M C-P buffer with 1 mM DTT and 0.01% Brij® L23, at the pH corresponding to the optimum for each enzyme in a total 200 µL reaction volume. The peptidases (140 nM) were pre-incubated with the inhibitor (1000-15 nM) at room temperature, for 30 min, before starting the reaction by the addition of the substrate that was optimal for each enzyme (FhCB1, Z-Phe-Arg-AMC; FhCB2 and FhCB3, Z-Val-Ile-Arg-AMC; FhCL3, Z-Gly-Pro-Arg-AMC). Substrate concentrations were equal to KM (shown in Table 1) and the apparent inhibition constant (Ki^app) values were calculated with GraphPad Prism 5, using the Morrison equation for tight binding inhibition (Equation (3)). For competitive inhibitors, such as those used in this study, Ki^app was fitted to a second equation (Equation (4)) from which Ki can be determined. (3) vi/vo=1−([E])+[I]+Kiapp)−([E]+[I]+Kiapp)^2−4[E][I] /2[E] (4) Kiapp=Ki(1+[S]/KM)

[2] = target: FhCB1 (Fasciola hepatica, UniProt Q8I7B2); assay: Inhibition of recombinant FhCB1, fluorogenic substrate assay (Z-Phe-Arg-AMC); assay type: biochemical; details: for inhibition of enzymatic activity (inhibitor screen, Figure 5), in words: FhCB1, inhibitor 1000-15 nM; for Ki: read-out: inhibition constant Ki
Protocol: as §1, §2

[3] = target: FhCB2 (Fasciola hepatica, UniProt A5X493); assay: Inhibition of recombinant FhCB2, fluorogenic substrate assay (Z-Val-Ile-Arg-AMC); assay type: biochemical; details: for inhibition of enzymatic activity (inhibitor screen, Figure 5), in words: FhCB2, inhibitor 1000-15 nM; for Ki: read-out: inhibition constant Ki
Protocol: as §1, §2

[4] = target: FhCL3 (Fasciola hepatica, UniProt A0A879R2T5); assay: Inhibition of recombinant FhCL3, fluorogenic substrate assay (Z-Gly-Pro-Arg-AMC); assay type: biochemical; details: for inhibition of enzymatic activity (inhibitor screen, Figure 5), in words: FhCL3, inhibitor 1000-15 nM; for Ki: read-out: inhibition constant Ki
Protocol: as §1, §2

[5] = system: Cc1cc(=O)oc2cc(NC(=O)[C@H](CCCNC(=N)N)NC(=O)[C@@H]3CCCN3C(=O)CNC(=O)OCc3ccccc3)ccc12; assay: purified protein, by the assay type; details: substrate 2000–4 μM, optimum pH, ± standard deviation, pH 7.0, 37.0 °C
Protocol: (§4) To determine the kinetic constants, Kcat, KM and Kcat/KM of the activated peptidases against the Z-Phe-Arg-AMC, Z-Gly-Pro-Arg-AMC and Z-Val-Ile-Arg-AMC substrates were used at concentrations of 2000–4 μM over a series of 10 dilutions using enzymes, buffer and assay conditions as described above. The kinetic constants, KM and Vmax, were calculated using the Michaelis–Menten equation (Equation (1)) in a non-linear regression analysis of initial reaction velocity against substrate concentration (built into GraphPad Prism 5). The value of KM can then be fitted to Equation (2) to determine the catalytic constant Kcat. (1) ν=d[P]/dt=Vmax[S]/KM+[S] where ν is the initial reaction velocity, [P] is the concentration of the formed product, [S] is the substrate concentration, Vmax is the maximum rate achieved by the system and KM is the Michaelis–Menten constant, which represents the concentration of substrate at which the reaction has a rate equal to half of Vmax. (2) ν=Kcat[Et]{}[S]/KM+[S] where [Et] is the enzyme concentration and Kcat is the catalytic constant, representing the measure of substrate molecules converted to product by enzyme per second.

[6] = system: Cc1cc(=O)oc2cc(NC(=O)[C@H](CCCNC(=N)N)NC(=O)[C@H](Cc3ccccc3)NC(=O)OCc3ccccc3)ccc12; assay: purified protein, by the assay type; details: substrate 2000–4 μM, optimum pH, ± standard deviation, pH 7.0, 37.0 °C
Protocol: as §4

[7] = system: CC[C@H](C)[C@H](NC(=O)[C@@H](NC(=O)OCc1ccccc1)C(C)C)C(=O)N[C@@H](CCCNC(=N)N)C(=O)Nc1ccc2c(C)cc(=O)oc2c1; assay: purified protein, by the assay type; details: other: FhCB3; substrate 2000–4 μM, optimum pH; ± standard deviation; pH 7.0; 37.0 °C
Protocol: as §4

[8] = target: T1, human cathepsin B (HsCB) (Homo sapiens, UniProt P07858); assay: Inhibitor screen against human cathepsin B control; assay type: biochemical
T1 construct: purchased Sigma-Aldrich; host or cells: human embryonic kidney cells
Description: (§3) The Schistosoma mansoni cathepsin B1 (SmCB1) was also produced in our laboratory using P. pastoris as described above. The human cathepsin B (HsCB) and cathepsin L1 (HsCL1) were produced in human embryonic kidney cells (Sigma-Aldrich).
as §2, with “All the assays were carried out in 0.1 M C-P buffer with 1 mM DTT and 0.01% Brij® L23, at the pH corresponding to the optimum for each enzyme in a total 200 µL reaction volume. The peptidases (140 nM) were pre-incubated with the inhibitor (1000-15 nM) at room temperature, for 30 min, before starting the reaction by the addition of the substrate that was optimal for each enzyme (FhCB1, Z-Phe-Arg-AMC; FhCB2 and FhCB3, Z-Val-Ile-Arg-AMC; FhCL3, Z-Gly-Pro-Arg-AMC).” left out
The broad-range cysteine peptidase inhibitor Z-Phe-Ala-FMK was also included (Figure 5).
Figure 5 Profile of inhibition of FhCB1, FhCB2, FhCB3 and FhCL3. Commercially available inhibitors of cathepsin B (Ca074 and Ca07a-OMe), cathepsin L (L, L1, LII, LIII and LIV), cathepsin K (KI, KII and KIII), cathepsin S and the broad-spectrum papain peptidase inhibitor Z-Phe-Ala-FMK (A–L) were used to determine and compare the inhibition constant against recombinants FhCB1, FhCB2, FhCB3, FhCL3, HsCB and HsCL1. […] Error bars indicate standard deviation of three replicates.

[9] = target: T2, cathepsin L1 (HsCL1) (Homo sapiens, UniProt P07711); assay: Inhibitor screen against human cathepsin L1 control; assay type: biochemical
T2 construct: purchased Sigma-Aldrich; host or cells: human embryonic kidney cells
Description: as §3, §2
A panel of 12 commercially available cysteine peptidase inhibitors that preferentially target mammalian cathepsin B (Ca074 and Ca074-OMe), cathepsin L (L, L1, LII, LIII and LIV) cathepsin S (S) and cathepsin K (KI, KII and KIII) were screened against the FhCBs, FhCL3 and, as controls, HsCB and HsCL1. The broad-range cysteine peptidase inhibitor Z-Phe-Ala-FMK was also included (Figure 5).
Figure 5 Profile of inhibition of FhCB1, FhCB2, FhCB3 and FhCL3. Commercially available inhibitors of cathepsin B (Ca074 and Ca07a-OMe), cathepsin L (L, L1, LII, LIII and LIV), cathepsin K (KI, KII and KIII), cathepsin S and the broad-spectrum papain peptidase inhibitor Z-Phe-Ala-FMK (A–L) were used to determine and compare the inhibition constant against recombinants FhCB1, FhCB2, FhCB3, FhCL3, HsCB and HsCL1. Activity is represented as the percentage of enzymatic activity observed by hydrolysis of a fluorogenic quenched peptide substrate following a pre-incubation with inhibitor in relation to the activity of the enzyme alone. Error bars indicate standard deviation of three replicates.

[10] = recombinant FhCB3 140 nM, 30 min pre-incubation, substrate Z-Val-Ile-Arg-AMC at KM, optimum pH, ± SEM
[11] = recombinant FhCB1 140 nM, 30 min pre-incubation, substrate Z-Phe-Arg-AMC at KM, optimum pH, ± SEM
[12] = recombinant FhCB2 140 nM, 30 min pre-incubation, substrate Z-Val-Ile-Arg-AMC at KM, optimum pH, ± SEM
[13] = recombinant FhCL3 140 nM, 30 min pre-incubation, substrate Z-Gly-Pro-Arg-AMC at KM, optimum pH, ± SEM

T2 sequence (P07711 114-333): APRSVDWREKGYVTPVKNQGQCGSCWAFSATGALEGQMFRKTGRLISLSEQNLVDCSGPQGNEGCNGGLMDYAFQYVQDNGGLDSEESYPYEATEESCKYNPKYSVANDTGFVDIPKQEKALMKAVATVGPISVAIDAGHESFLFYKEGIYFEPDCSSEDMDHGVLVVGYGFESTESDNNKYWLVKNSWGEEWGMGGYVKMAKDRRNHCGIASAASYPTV
Sequence of FhCB2 (A5X493 entry or part of it): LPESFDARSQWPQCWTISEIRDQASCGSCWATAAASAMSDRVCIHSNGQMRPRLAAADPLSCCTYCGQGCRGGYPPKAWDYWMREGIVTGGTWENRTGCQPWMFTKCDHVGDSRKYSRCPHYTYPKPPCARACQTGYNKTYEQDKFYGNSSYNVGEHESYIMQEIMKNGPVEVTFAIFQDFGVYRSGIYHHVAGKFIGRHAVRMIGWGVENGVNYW
Sequence of FhCL3 (A0A879R2T5 entry or part of it): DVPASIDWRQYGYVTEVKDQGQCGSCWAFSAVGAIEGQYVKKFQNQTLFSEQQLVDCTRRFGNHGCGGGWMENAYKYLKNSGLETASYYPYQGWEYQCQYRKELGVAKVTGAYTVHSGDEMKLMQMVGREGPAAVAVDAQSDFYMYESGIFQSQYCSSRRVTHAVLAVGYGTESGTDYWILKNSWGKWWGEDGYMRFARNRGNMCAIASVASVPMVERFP
Sequence of FhCB1 (Q8I7B2 entry or part of it): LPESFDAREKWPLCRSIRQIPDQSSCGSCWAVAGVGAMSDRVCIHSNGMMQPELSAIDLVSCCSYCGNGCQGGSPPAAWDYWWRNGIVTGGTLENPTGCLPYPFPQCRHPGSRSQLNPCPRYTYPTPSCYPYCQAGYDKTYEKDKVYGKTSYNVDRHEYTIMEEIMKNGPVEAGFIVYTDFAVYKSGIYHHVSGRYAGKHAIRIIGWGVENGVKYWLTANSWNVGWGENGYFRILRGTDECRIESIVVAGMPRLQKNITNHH
Sequence of FhCB3 (A7UNB2 entry or part of it): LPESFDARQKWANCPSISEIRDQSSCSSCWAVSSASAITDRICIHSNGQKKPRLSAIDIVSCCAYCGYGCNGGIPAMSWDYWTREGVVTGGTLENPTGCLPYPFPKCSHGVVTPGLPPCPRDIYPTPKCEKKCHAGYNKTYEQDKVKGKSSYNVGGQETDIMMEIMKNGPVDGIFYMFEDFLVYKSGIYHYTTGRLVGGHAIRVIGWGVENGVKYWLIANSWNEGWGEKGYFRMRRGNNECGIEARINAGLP

Compound: CC(C)C[C@H](NC(=O)OCc1ccccc1)C(=O)NNC(=O)NNC(=O)[C@H](CC(C)C)NC(=O)C(Cc1ccccc1)NC(=O)OC(C)(C)C (stereo partly drawn) [KII]
- inhibition of enzymatic activity (inhibitor screen, Figure 5), in words [1]: abrogated the activity; also recorded: reduced
- Ki [1, 10]: 227 ± 28.3 nM
- inhibition of enzymatic activity (inhibitor screen, Figure 5), in words [2]: weak inhibitors; also recorded: generally poor inhibitors
- Ki [2, 11]: 466 ± 40.6 nM
- inhibition of enzymatic activity (inhibitor screen, Figure 5), in words [3]: no effect; also recorded: generally poor inhibitors; also recorded: not inhibited
- Ki [3, 12]: > 1000 nM
- inhibition of enzymatic activity (inhibitor screen, Figure 5), in words [4]: reduced
- Ki [4, 13]: 0.7 ± 0.19 nM

Compound: FhCB3 (Fasciola hepatica)
- Km ([5]; other: FhCB3): 40 ± 4 µM
- kcat ([5]; other: FhCB3): 0.02 ± 0.002 s⁻¹
- kcat/Km ([5]; other: FhCB3): 579 M^-1S^-1
- Km ([6]; other: FhCB3): 27 ± 2 µM
- kcat ([6]; other: FhCB3): 0.05 ± 0.007 s⁻¹
- kcat/Km ([6]; other: FhCB3): 1708 M^-1S^-1
- Km [7]: 42 ± 4 µM
- kcat [7]: 0.1 ± 0.004 s⁻¹
- kcat/Km [7]: 2266 M^-1S^-1

Compound: CCCNC(=O)[C@H]1O[C@@H]1C(=O)N[C@H](C(=O)N1CCC[C@H]1C(=O)O)[C@@H](C)CC [Ca074]
- inhibition of enzymatic activity (inhibitor screen, Figure 5), in words [1]: poor inhibitors; also recorded: very poor inhibitors
- inhibition constant Ki [1, 10]: poor inhibition
- Ki [1, 10]: 540 ± 45.2 nM
- inhibition of enzymatic activity (inhibitor screen, Figure 5), in words [2]: poor inhibitors; also recorded: very poor inhibitors
- inhibition constant Ki [2, 11]: poor inhibition
- Ki [2, 11]: 7320 ± 934 nM
- inhibition of enzymatic activity (inhibitor screen, Figure 5), in words [3]: poor inhibitors; also recorded: very poor inhibitors
- inhibition constant Ki [3, 12]: poor inhibition
- Ki [3, 12]: 5930 ± 567 nM
- inhibition of enzymatic activity (inhibitor screen, Figure 5), in words [4]: poor inhibitors
- inhibition constant Ki [4, 13]: poor inhibition
- Ki [4, 13]: 603 ± 133 nM
- inhibition of enzymatic activity (inhibitor screen, Figure 5), in words [8]: selective for HsCB compared to HsCL1

Compound: CC(C)C[C@H](NC(=O)OCc1ccccc1)C(=O)NCC(=O)CNC(=O)[C@H](CC(C)C)NC(=O)OCc1ccccc1 [KI]
- inhibition of enzymatic activity (inhibitor screen, Figure 5), in words [1]: reduced
- inhibition of enzymatic activity (inhibitor screen, Figure 5), in words [2]: generally poor inhibitors
- inhibition of enzymatic activity (inhibitor screen, Figure 5), in words [3]: generally poor inhibitors; also recorded: not inhibited
- inhibition of enzymatic activity (inhibitor screen, Figure 5), in words [4]: reduced

- inhibition of enzymatic activity (inhibitor screen, Figure 5), in words [9]: specificity for HsCL1 over HsCBs
Compound: CC[C@H](C)[C@H](NS(=O)(=O)c1cccc2ccccc12)C(=O)N[C@H](C=O)Cc1c[nH]c2ccccc12 [LIV]

Compound: CC(C)C[C@H](NC(=O)OCc1ccccc1)C(=O)NNC(=O)NNC(=O)[C@H](CC(C)C)NC(=O)C(N)Cc1ccccc1 (stereo partly drawn) [KIII]
- inhibition of enzymatic activity (inhibitor screen, Figure 5), in words [1]: abrogated the activity; also recorded: reduced
- inhibition of enzymatic activity (inhibitor screen, Figure 5), in words [2]: weak inhibitors; also recorded: generally poor inhibitors
- inhibition of enzymatic activity (inhibitor screen, Figure 5), in words [3]: no effect; also recorded: generally poor inhibitors; also recorded: not inhibited
- inhibition of enzymatic activity (inhibitor screen, Figure 5), in words [4]: reduced

Compound: O=C(NCc1ccccc1)C(Cc1ccccc1)NC(=O)C1OC1C(=O)NCCc1ccc(O)cc1 (stereo not drawn) [L]
- inhibition of enzymatic activity (inhibitor screen, Figure 5), in words [1]: significantly reduced
- inhibition of enzymatic activity (inhibitor screen, Figure 5), in words [9]: specificity for HsCL1 over HsCBs
- inhibition of enzymatic activity (inhibitor screen, Figure 5), in words [2]: did not inhibit
- inhibition of enzymatic activity (inhibitor screen, Figure 5), in words [3]: did not inhibit
- inhibition of enzymatic activity (inhibitor screen, Figure 5), in words [4]: significantly reduced

- inhibition of enzymatic activity (inhibitor screen, Figure 5), in words [9]: specificity for HsCL1 over HsCBs
Compound: COc1ccc(C(=O)ONC(=O)CNC(=O)C(Cc2ccccc2)NC(=O)OCc2ccccc2)cc1 (stereo not drawn) [LIII]

Compound: O=C(NC(Cc1ccccc1)C(=O)NC(Cc1ccccc1)C(=O)CF)OCc1ccccc1 (stereo not drawn) [Inhibitor L1] (Cbz-Phe-Phe-CH2F; configuration not given here)
- inhibition of enzymatic activity (inhibitor screen, Figure 5), in words [1]: most effective at blocking
- inhibition of enzymatic activity (inhibitor screen, Figure 5), in words [9]: specificity for HsCL1 over HsCBs
- inhibition of enzymatic activity (inhibitor screen, Figure 5), in words [2]: most effective at blocking

Compound: FhCL3 (Fasciola hepatica)
- Km ([5]; other: FhCL3): 27 ± 2 µM
- kcat ([5]; other: FhCL3): 0.5 ± 0.07 s⁻¹
- kcat/Km ([5]; other: FhCL3): 17,960 M^-1S^-1

Compound: FhCB1 (Fasciola hepatica)
- Km ([6]; other: FhCB1): 69 ± 5 µM
- kcat ([6]; other: FhCB1): 1.0 ± 0.2 s⁻¹
- kcat/Km ([6]; other: FhCB1): 13,596 M^-1S^-1
